# According to patent US9616058B2, “Potent selective LSD1 inhibitors and dual LSD1/MAO-B inhibitors for antiviral use” (Oryzon Genomics, S.A., priority 2010, dated 2017):
# What was measured:
# Assay type in all cases: biochemical
# [1] = target: T1, Human recombinant LSD1 protein (Homo sapiens, UniProt O60341); experiment: LSD1 demethylase inhibition assay (Amplex Red peroxide/peroxidase-coupled); settings: Ki (IC50) estimated at half of the maximum activity
# T1 construct: purchased BPS Bioscience Inc
# Text: The compounds of the invention can be tested for their ability to inhibit LSD1.
# The conversion of the Amplex®.
# [2] = target: T2, Human recombinant monoamine oxidase MAO-A (Homo sapiens, UniProt P21397); experiment: Monoamine oxidase assay (kynuramine fluorescence), MAO-A; settings: Ki measured at Vmax/2
# T2 construct: purchased Sigma Aldrich
# T2 sequence (P21397 1-527): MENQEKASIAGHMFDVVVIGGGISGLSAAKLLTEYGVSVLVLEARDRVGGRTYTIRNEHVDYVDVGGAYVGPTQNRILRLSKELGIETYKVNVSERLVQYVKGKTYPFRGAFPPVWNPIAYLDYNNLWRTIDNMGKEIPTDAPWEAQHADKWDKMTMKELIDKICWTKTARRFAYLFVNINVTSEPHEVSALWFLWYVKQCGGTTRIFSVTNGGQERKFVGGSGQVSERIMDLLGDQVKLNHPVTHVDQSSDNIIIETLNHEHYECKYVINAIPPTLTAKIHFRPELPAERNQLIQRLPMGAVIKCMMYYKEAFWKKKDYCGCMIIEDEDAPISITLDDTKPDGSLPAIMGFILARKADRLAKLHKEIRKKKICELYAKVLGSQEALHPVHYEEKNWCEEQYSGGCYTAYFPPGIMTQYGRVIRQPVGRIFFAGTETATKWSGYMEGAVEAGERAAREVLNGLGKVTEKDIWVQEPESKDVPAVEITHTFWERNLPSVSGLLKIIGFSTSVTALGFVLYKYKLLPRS
# Experimental: (§1) MOAs catalyze the oxidative deamination of 1°, 2′ and 3° amines.
# (§2) The Ki of each inhibitor was measure at Vmax/2.
# [3] = target: T3, Human recombinant monoamine oxidase MAO-B (Homo sapiens, UniProt P27338); experiment: Monoamine oxidase assay (kynuramine fluorescence), MAO-B; settings: Ki measured at Vmax/2
# T3 construct: purchased Sigma Aldrich
# T3 sequence (P27338 1-520): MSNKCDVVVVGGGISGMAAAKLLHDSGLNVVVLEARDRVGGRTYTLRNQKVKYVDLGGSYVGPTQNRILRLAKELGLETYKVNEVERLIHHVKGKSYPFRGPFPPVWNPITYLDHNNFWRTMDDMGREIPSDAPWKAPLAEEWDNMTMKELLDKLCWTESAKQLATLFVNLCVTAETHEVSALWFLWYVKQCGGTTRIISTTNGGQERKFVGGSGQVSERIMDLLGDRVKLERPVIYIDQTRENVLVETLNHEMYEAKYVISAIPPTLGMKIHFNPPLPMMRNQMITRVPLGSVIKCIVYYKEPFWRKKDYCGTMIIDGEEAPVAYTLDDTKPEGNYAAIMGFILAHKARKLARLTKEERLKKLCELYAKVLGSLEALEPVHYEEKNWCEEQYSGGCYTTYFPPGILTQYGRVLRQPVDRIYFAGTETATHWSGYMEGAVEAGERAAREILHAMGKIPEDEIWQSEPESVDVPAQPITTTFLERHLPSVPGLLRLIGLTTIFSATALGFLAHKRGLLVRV
# Experimental: as §1, §2
Compound,Ki [1] [µM],Ki [2] [µM],Ki [3] [µM]
N[C@@H]1CCN(CCN[C@H]2CC2c2ccccc2)C1 (some centres unmarked) [1(A)],< 1,> 40,> 40
c1ccc(C2C[C@@H]2NCCNC2CC2)cc1 (some centres unmarked) [Compound 2(A)],,~10,
c1ccc(C2C[C@@H]2NCCN2CCNCC2)cc1 (some centres unmarked) [1(B)],< 1,> 30,> 30
NC(=O)CN[C@H]1CC1c1ccc(OCc2cc(F)cc(F)c2)cc1 (some centres unmarked) [2(B)],,20 to 30,
